Paper PMC4367962 (Nature, 2014)

What was measured:
[1] = system: mir-155^LSLtTA lymphoma subcutaneous flank tumors; assay: mir-155^LSLtTA lymphoma subcutaneous flank tumor model in nude mice; type: in vivo; settings: early endpoint study; n = 3, pHLIP-anti155 n = 4
[2] = mouse, in vivo, iv

Row | Kidney distribution [2] | Molecule | Onset of splenomegaly (spleen mass) [1] | Clearance route [2]
1 | – | C[C@H]1c2cccc(O)c2C(=O)C2=C(O)[C@]3(O)C(=O)C(C(N)=O)=C(O)[C@@H](N(C)C)[C@@H]3[C@@H](O)[C@@H]21 [DOX, doxycycline] | reduced the onset of splenomegaly | –
2 | shows kidney targeting | AAEQNPIYWARYADWLFTTPLLLLDLALLVDADEGT(CNPys)G [pHLIP] | – | much of the peptide is cleared by renal excretion
